Like-named read-outs stand apart in the source and are kept apart here.
Key:
[1] = target: T1, cardiac phosphodiesterase III (PDEIII), dog (Canis lupus familiaris, UniProt A0A8I3NYE0); test: Inhibition of cardiac phosphodiesterase III, dog heart enzyme preparation; assay type: biochemical
T1 construct: enzyme preparation isolated from dog and guinea-pig heart; from tissue; host or cells: dog heart
T1 sequence (A0A8I3NYE0 1-1135): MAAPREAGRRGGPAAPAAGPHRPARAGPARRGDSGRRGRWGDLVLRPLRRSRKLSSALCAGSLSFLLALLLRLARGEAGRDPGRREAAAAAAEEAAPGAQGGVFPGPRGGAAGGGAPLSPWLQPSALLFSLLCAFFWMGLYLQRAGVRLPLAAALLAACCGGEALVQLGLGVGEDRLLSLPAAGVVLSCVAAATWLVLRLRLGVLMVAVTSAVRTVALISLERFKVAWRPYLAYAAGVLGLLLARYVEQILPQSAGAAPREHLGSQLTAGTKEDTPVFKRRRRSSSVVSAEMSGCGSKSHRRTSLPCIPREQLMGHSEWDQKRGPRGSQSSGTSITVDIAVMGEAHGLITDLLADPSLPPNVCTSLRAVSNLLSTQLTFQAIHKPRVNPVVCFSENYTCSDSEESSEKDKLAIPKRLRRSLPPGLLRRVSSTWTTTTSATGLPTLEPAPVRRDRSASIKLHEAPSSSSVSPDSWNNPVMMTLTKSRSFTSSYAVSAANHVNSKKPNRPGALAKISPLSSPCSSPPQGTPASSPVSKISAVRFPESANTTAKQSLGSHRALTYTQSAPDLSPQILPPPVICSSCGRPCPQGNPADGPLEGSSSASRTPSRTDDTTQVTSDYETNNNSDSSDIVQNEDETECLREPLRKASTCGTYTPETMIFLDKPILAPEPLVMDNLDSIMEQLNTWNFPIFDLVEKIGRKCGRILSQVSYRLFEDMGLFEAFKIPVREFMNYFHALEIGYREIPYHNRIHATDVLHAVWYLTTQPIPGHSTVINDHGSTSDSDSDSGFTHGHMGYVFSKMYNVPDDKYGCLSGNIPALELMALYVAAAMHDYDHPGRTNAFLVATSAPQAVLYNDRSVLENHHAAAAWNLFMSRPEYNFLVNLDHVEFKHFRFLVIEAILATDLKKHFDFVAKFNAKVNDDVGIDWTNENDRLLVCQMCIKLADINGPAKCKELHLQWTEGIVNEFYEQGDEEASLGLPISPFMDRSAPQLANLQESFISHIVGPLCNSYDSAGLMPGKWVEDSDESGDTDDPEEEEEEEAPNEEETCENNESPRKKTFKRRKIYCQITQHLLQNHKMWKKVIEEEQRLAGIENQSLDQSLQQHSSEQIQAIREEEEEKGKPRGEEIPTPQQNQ

[2] = system: guinea-pig papillary muscle; test: Ability to induce tonic contraction in papillary muscle in the absence of extracellular calcium; details: drug concentration 100 μM; no extracellular calcium
Procedure: The cardiotonic action of the compound was studied in isolated, electrically driven, right ventricular papillary muscle of guinea-pig. In order to compare the cardiotonic action based on PDEIII inhibition to that based on the other mechanisms the experiments were carried out in normal Tyrode's bathing solution (Otani et al., Japan. J. Pharmacol. 45, 425, 1987) and also in the solution with carbachol to eliminate the cardiotonic action due to the PDEIII inhibition (Alousi & Johnson, Circulation, 73 (suppl. III), 10-23, 1986).
C = ability to induce tonic contraction in the absence of extracellular
calcium; drug concentration 100 μM

[3] = system: guinea-pig papillary muscle; test: Cardiotonic effect in isolated, electrically driven, right ventricular papillary muscle, without and with carbachol; details: for EC50: Cavia porcellus; for Ratio B/A of EC50: with 10 μM carbachol / without carbachol
Procedure: The cardiotonic action of the compound was studied in isolated, electrically driven, right ventricular papillary muscle of guinea-pig.
A = experiments carried out without carbachol
B = experiments carried out in the presence of 10 μM carbachol

troponin = test: Retention time in troponin high-performance liquid affinity chromatography (HPLAC) column, calcium dependent binding to troponin; details: for Ratio Ca^2+ /EDTA (retention times in troponin-HPLAC column): Ca^2+ solution / EDTA solution; for Retention time in troponin-HPLAC column, Ca^2+ solution: mobile phase with 30 mM calcium; for Retention time in troponin-HPLAC column, Ca^2+ solution / Retention time in troponin-HPLAC column, EDTA solution: flow rate 1 ml/min; for Retention time in troponin-HPLAC column, EDTA solution: mobile phase without calcium (EDTA)
Procedure: The contraction in cardiac muscle and in vascular smooth muscle is triggered by the binding of calcium to troponin and to calmodulin, respectively. […] Commercially available troponin was coupled to the matrix of SelectiSpher-10™ Activated Tresyl silica HPLAC column (size 10 cm×5 mm). The compounds were run through the column with the flow rate 1 ml/min and detected by UV-spectrophotometrically.

[4] = Precipitation at 100 μM concentration (footnote of Table 3); assay type: physicochemical; design: key: *: precipitation occurs at 100 μM concentration; details: printed in column C of Table 3
[5] = target: T2, cardiac phosphodiesterase III (PDEIII), guinea-pig (Cavia porcellus, UniProt H0VIU9); test: Inhibition of cardiac phosphodiesterase III, guinea-pig heart enzyme preparation; assay type: biochemical
T2 construct: enzyme preparation isolated from dog and guinea-pig heart; from tissue; host or cells: guinea-pig heart
T2 sequence (H0VIU9 1-1132): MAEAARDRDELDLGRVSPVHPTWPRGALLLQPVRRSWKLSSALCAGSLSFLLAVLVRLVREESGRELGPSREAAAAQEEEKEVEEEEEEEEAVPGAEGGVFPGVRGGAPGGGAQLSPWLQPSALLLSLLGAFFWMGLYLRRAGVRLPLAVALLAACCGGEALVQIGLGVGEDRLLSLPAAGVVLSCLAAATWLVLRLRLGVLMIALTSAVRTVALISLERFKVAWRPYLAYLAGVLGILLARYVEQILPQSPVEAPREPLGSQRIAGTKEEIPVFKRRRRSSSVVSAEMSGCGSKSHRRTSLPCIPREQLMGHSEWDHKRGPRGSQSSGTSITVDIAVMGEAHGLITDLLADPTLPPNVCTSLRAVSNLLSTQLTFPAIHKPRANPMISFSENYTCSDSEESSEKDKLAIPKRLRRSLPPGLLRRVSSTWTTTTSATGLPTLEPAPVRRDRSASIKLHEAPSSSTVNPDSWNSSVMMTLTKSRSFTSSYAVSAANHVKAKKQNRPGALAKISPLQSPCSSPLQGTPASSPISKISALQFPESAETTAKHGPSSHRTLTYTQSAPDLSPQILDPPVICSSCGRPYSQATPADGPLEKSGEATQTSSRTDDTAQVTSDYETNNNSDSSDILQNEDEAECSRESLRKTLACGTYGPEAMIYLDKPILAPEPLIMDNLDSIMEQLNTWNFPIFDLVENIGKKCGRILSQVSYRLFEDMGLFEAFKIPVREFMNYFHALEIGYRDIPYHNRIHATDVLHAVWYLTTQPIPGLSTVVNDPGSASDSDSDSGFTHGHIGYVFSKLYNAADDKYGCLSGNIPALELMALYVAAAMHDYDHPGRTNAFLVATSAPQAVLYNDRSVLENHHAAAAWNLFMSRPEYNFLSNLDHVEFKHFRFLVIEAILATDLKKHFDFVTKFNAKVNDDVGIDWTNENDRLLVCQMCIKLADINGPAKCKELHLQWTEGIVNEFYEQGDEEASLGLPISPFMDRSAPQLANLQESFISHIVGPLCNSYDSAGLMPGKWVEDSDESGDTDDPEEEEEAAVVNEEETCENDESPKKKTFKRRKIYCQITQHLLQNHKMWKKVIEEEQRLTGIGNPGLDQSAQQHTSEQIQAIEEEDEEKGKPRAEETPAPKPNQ
Description: The PDEIII inhibition was studied by using enzyme preparation isolated from dog and guinea-pig heart according to Alajoutsijarvi and Nissinen (Anal. Biochem. 165, 128-132, 1987).

[6] = dog heart, read-out: IC50-value, inhibition of cardiac phosphodiesterase III, Dog
[7] = read-out: EC50 cardiotonic effect (A)
[8] = without carbachol, read-out: EC50 cardiotonic effect (A)

SMILES | IC50 [1, 6] [nM] | C: ability to induce tonic contraction in the absence of extracellular calcium [2] | EC50 [3, 7] [nM] | Ratio B/A of EC50 [3] | Ratio Ca^2+ /EDTA (retention times in troponin-HPLAC column) (troponin) | Retention time in troponin-HPLAC column, Ca^2+ solution (troponin) [min] | Retention time in troponin-HPLAC column, EDTA solution (troponin) [min] | precipitation [4] | EC50 ([3]; in the presence of 10 μM carbachol, read-out: EC50 cardiotonic effect (B)) [nM] | EC50 [3, 8] [nM] | IC50 [5] [nM] | IC50 [1] [nM]
N#CC(C#N)=NNc1ccc(C2=NNC(=O)CC2)cc1 [Example 1, 6-[4-(1,1-dicyanomethylidenehydrazino)phenyl]-4,5-dihydropyridazin-3(2H)one] | 270 | yes | 1800 | 2.0 | 1.59 | 3.5 | 2.2 | – | – | – | – | –
CC1CC(=O)NN=C1c1ccc(NN=C(C#N)C#N)cc1 (stereo not shown) [Example 6, 6-[4-(1,1-dicyanomethylidenehydrazino)phenyl]-4,5-dihydro-5-methylpyridazin-3(2H)one] | 62 | – | 170 | – | – | – | – | – | – | – | – | –
CC(=O)C(=NNc1ccc(C2=NNC(=O)CC2)cc1)C(C)=O [Example 7, 6-[4-(1,1-diacetylmethylidenehydrazino)phenyl]-4,5-dihydropyridazin-3(2H)on] | 230 | – | – | 3.6 | 1.29 | 5.4 | 4.2 | * | 2700 | 740 | – | –
CC1CC(=O)NN=C1/C=C/c1ccc(NN=C(C#N)C#N)cc1 (stereo not shown) [Example 33, (E)-6-[2-(4-(1,1-dicyanomethylidenehydrazino)phenyl)ethenyl]-4,5-dihydro-5-methylpyridazin-3(2H)one] | – | yes | – | – | 1.69 | 6.6 | 3.9 | – | – | 300 | 6 | –
CC1SC(=O)NN=C1c1ccc(NN=C(C#N)C#N)cc1 (stereo not shown) [Example 41, 5-[4-(1,1-dicyanomethylidenehydrazino)phenyl]-5,6-dihydro-6-methyl-1,3,4-thiadiazin-2(3H)one] | – | yes | – | – | 2.19 | 10.5 | 4.8 | – | – | 120 | 24 | –
CC1NC(=O)NN=C1c1ccc(NN=C(C#N)C#N)cc1 (stereo not shown) [Example 43, 6-[4-(1,1-dicyanomethylidenehydrazino)phenyl]-4,5-dihydro-5-methyl-1,2,4-triazin-3(2H)one] | – | – | – | – | 2.00 | 2.4 | 1.2 | – | – | – | 17 | –
N#CC(C#N)=NNc1ccc(C2=NNC(=O)SC2)cc1 [Example 44, 5-[4-(1,1-dicyanomethylidenehydrazino)phenyl]-5,6-dihydro-1,3,4-thiadiazin-2(3H)one] | – | yes | – | – | – | – | – | – | – | 1100 | 51 | –
N#CC(C#N)=NNc1ccc(C2=NNC(=O)NC2)cc1 [Example 45, 6-[4-(1,1-dicyanomethylidenehydrazino)phenyl]-4,5-dihydro-1,2,4-triazin-3(2H)one] | – | – | – | – | 2.33 | 2.1 | 0.9 | – | – | – | – | –
N#CC(C#N)=NNc1ccc(C=CC2=NNC(=O)SC2)cc1 [Example 49, 5-[2-(4-(1,1-dicyanomethylidenehydrazino)phenyl)ethenyl]-5,6-dihydro-1,3,4-thiadiazin-2(3H)one] | – | yes | 1100 | – | 2.30 | 18.4 | 8.0 | – | – | – | 24 | –
O=C1CCC(c2ccc(Nc3ccncc3)cc2)=NN1 [MCI-154, reference compound] | 420 | – | – | – | 0.52 | 6.5 | 12.4 | – | – | – | – | –
CC1(C)C(=O)Nc2cc3[nH]c(-c4ccncc4)nc3cc21 [adibendan, reference compound] | 1000 | – | – | – | 0.99 | 14.8 | 15.0 | – | – | – | – | –
Cc1[nH]c(=O)c(C#N)cc1-c1ccncc1 [milrinone, reference compound] | – | no | 360 | 15.3 | 1.00 | 1.2 | 1.2 | – | – | – | 440 | 580
COc1ccc(-c2nc3ccc(C4=NNC(=O)CC4C)cc3[nH]2)cc1 (stereo not shown) [pimobendan, reference compound] | 1750 | no | – | – | 0.88 | 70.4 | 79.6 | – | – | 3300 | – | –
